Strand notation (5' to 3'): a small letter for the sugar, then the base; units joined by * are phosphorothioate-linked, units joined directly phosphodiester-linked; [ ] holds rarer units or linkages, { } end groups; capitals alone tell only the bases. k = constrained ethyl (cEt); [5mC] = 5-methylcytosine; d = 2'-deoxy (DNA)

One data set relates to Yap1 mRNA. As to the kind of experiment: Antisense inhibition of human Yap1 in A-431 cells by cEt gapmers, single dose (Example 3, RTS36584). Conditions: Table 9; A-431 cells, 5,000 cells per well, free uptake, 2,000 nM, approximately 48 hours; RTS36584; normalized to RIBOGREEN; Yap1 mRNA relative to untreated control cells. Type of data set: cell-based. The protocol:
Modified oligonucleotides were designed to target a Yap1 nucleic acid and were tested for their effect on Yap1 mRNA level in vitro. The modified oligonucleotides were tested in a series of experiments that had similar culture conditions. Cultured A-431 cells at a density of 5,000 cells per well were treated using free uptake with 2,000 nM of modified oligonucleotide. After a treatment period of approximately 48 hours, RNA was isolated from the cells and Yap1 mRNA levels were measured by quantitative real-time RTPCR. Human primer probe set RTS36584 (forward sequence […], designated herein as SEQ ID NO.: 14; reverse sequence […], designated herein as SEQ ID NO.: 15; probe sequence […], designated herein as SEQ ID NO.: 16) was used to measure mRNA levels. Yap1 mRNA levels were normalized to total RNA content, as measured by RIBOGREEN®. Results are presented in the tables below as percent control of the amount of Yap1 mRNA relative to untreated control cells (% UTC). The modified oligonucleotides with percent control values marked with an asterisk (*) target the amplicon region of the primer probe set. Additional assays may be used to measure the potency and efficacy of the modified oligonucleotides targeting the amplicon region.
The newly designed modified oligonucleotides in the Tables below were designed as 3-10-3 cEt gapmers. The gapmers are 16 nucleosides in length, wherein the central gap segment comprises of ten 2′-deoxynucleosides and is flanked by wing segments on the 5′ direction and the 3′ direction comprising three nucleosides each. Each nucleoside in the 5′ wing segment and each nucleoside in the 3′ wing segment has a cEt sugar modification. The internucleoside linkages throughout each gapmer are phosphorothioate (P═S) linkages. All cytosine residues throughout each gapmer are 5-methylcytosines.
“Start site” indicates the 5′-most nucleoside to which the gapmer is targeted in the human gene sequence. “Stop site” indicates the 3′-most nucleoside to which the gapmer is targeted human gene sequence. […] Activity of the modified oligonucleotide may be defined in a different experiment.
With “958636 (antisense k[5mC]*k[5mC]*kG*d[5mC]*dA*d[5mC]*d[5mC]*dG*d[5mC]*dG*dG*d[5mC]*d[5mC]*k[5mC]*kG*kG) [Compound 958636]”, the “YAP1 (% UTC)” value turned out to be 126 % UTC.

Staying with this data set, now noted: Table 10; A-431 cells, 5,000 cells per well, free uptake, 2,000 nM oligonucleotide, approx. 48 hours; primer probe set RTS36584; Yap1 mRNA normalized to RIBOGREEN, percent of untreated control.
As to “958607 (antisense k[5mC]*kA*kA*d[5mC]*dA*dT*dG*d[5mC]*dT*dT*dG*d[5mC]*dG*kA*kG*kG) [Compound 958607]”, the “YAP1 (% UTC)” value stood at 11 % UTC.

Take “958557 (k[5mC]*kA*k[5mC]*dA*dA*d[5mC]*d[5mC]*dA*dA*d[5mC]*dT*dA*dT*kT*kA*k[5mC]; antisense) [Compound 958557]”: the “YAP1 (% UTC)” value is listed as 10 % UTC.

With “958447 (antisense kG*kT*kT*dG*dA*dG*dG*d[5mC]*dG*dG*d[5mC]*dG*dG*k[5mC]*kT*kG) [Compound 958447]”, the “YAP1 (% UTC)” value was found to be 48 % UTC.

For the substance “958612 (antisense kA*k[5mC]*k[5mC]*dT*dA*dA*d[5mC]*dA*dT*dA*dT*dG*dA*kG*k[5mC]*kA) [Compound 958612]”, the “YAP1 (% UTC)” value worked out at 18 % UTC.

Still in this data set, the particulars now being: Table 11; A-431 cells, 5,000 cells per well, free uptake, 2,000 nM oligonucleotide, approx. 48 hours; primer probe set RTS36584; Yap1 mRNA normalized to RIBOGREEN, percent of untreated control.
As for “958573 (kG*kG*k[5mC]*dA*dA*dA*dT*dT*dA*dT*dA*dG*dG*k[5mC]*kA*k[5mC]; antisense) [Compound 958573]”, the “YAP1 (% UTC)” value is 2 % UTC.

As for “958603 (kT*kG*kG*dT*dA*dT*dG*dA*dA*dT*dT*d[5mC]*dT*kG*kA*kA; antisense) [Compound 958603]”, the “YAP1 (% UTC)” value turned out to be 3 % UTC.

Staying with this data set, now noted: Table 12; A-431 cells, 5,000 cells per well, free uptake, 2,000 nM modified oligonucleotide, approx. 48 hours; RTS36584; normalized to RIBOGREEN; Yap1 mRNA relative to untreated control cells.
For the substance “958469 (antisense kG*kG*k[5mC]*dT*d[5mC]*dT*dA*dT*dA*dA*d[5mC]*d[5mC]*dA*kT*kG*kT) [Compound 958469]”, the “YAP1 (% UTC)” value is 17 % UTC.

As for “958744 (antisense kG*k[5mC]*kA*dT*dA*d[5mC]*dT*dG*dG*dT*dG*d[5mC]*d[5mC]*k[5mC]*k[5mC]*kA) [Compound 958744]”, the “YAP1 (% UTC)” value turned out to be 45 % UTC.

Consider “958589 (kG*kT*kA*dA*dA*dG*dG*dA*dA*dG*dA*dT*d[5mC]*kT*k[5mC]*k[5mC]; antisense) [Compound 958589]”, for which the “YAP1 (% UTC)” value came out at 4 % UTC.

The same data set, now with this note: Table 13; A-431 cells, 5,000 cells per well, free uptake, 2,000 nM modified oligonucleotide, approx. 48 hours; RTS36584; normalized to RIBOGREEN; Yap1 mRNA relative to untreated control cells.
In the case of “958670 (kG*kG*kT*d[5mC]*dT*dT*dG*dG*dT*dG*dA*dT*dT*kG*kG*k[5mC]; antisense) [Compound 958670]”, the “YAP1 (% UTC)” value worked out at 20 % UTC.

On to “958605 (antisense k[5mC]*kT*k[5mC]*dA*dG*dA*dT*dG*dT*dA*d[5mC]*d[5mC]*dA*kA*k[5mC]*kG) [Compound 958605]”, for which the “YAP1 (% UTC)” value worked out at 7 % UTC.

As for “958470 (antisense kT*kA*kG*dA*dT*d[5mC]*d[5mC]*dT*dT*d[5mC]*dA*d[5mC]*dA*kG*kA*kT) [Compound 958470]”, the “YAP1 (% UTC)” value was 18 % UTC.

The data set is the same for the next values; noted with them: Table 26; Yap1 mRNA by 3-10-3 cEt gapmers targeting SEQ ID NO.: 1, and 2; percent of untreated control.
Consider “1074796 (k[5mC]*kT*k[5mC]*d[5mC]*dA*dA*dA*dT*d[5mC]*dA*dA*dT*dG*kT*kG*k[5mC]; antisense) [compound 1074796]”, for which the “YAP1 (% UTC)” value worked out at 22 % UTC.

With “1075532 (kA*k[5mC]*kT*dT*dA*dA*dT*dA*dG*dT*dT*dT*dA*kA*k[5mC]*k[5mC]; antisense) [compound 1075532]”, the “YAP1 (% UTC)” value is recorded as 121 % UTC.

With “1075724 (k[5mC]*kT*kA*dT*d[5mC]*dT*dG*dT*d[5mC]*dA*dG*dT*dT*kA*kT*k[5mC]; antisense) [compound 1075724]”, the “YAP1 (% UTC)” value is listed as 44 % UTC.

In the case of “1074316 (antisense kG*kG*kA*dT*dT*dG*dA*dT*dA*dT*dT*d[5mC]*d[5mC]*kG*k[5mC]*kA) [compound 1074316]”, the “YAP1 (% UTC)” value was determined as 33 % UTC.

Take “1075980 (k[5mC]*kA*kA*dT*dA*dT*d[5mC]*d[5mC]*dT*dA*d[5mC]*dA*d[5mC]*k[5mC]*kA*kT; antisense) [compound 1075980]”: the “YAP1 (% UTC)” value came out at 43 % UTC.

The same data set, now with this note: Table 27; Yap1 mRNA by 3-10-3 cEt gapmers targeting SEQ ID NO.: 1, and 2; percent of untreated control.
Take “1074989 (antisense kG*kA*kG*dG*dG*dA*dA*dA*dG*d[5mC]*dA*d[5mC]*dG*k[5mC]*k[5mC]*k[5mC]) [compound 1074989]”: the “YAP1 (% UTC)” value is listed as 105 % UTC.

With “1074189 (antisense kG*kG*k[5mC]*dT*dG*d[5mC]*dG*dA*dA*dG*dG*d[5mC]*dG*kG*k[5mC]*kT) [compound 1074189]”, the “YAP1 (% UTC)” value came to 96 % UTC.

The data set is the same for the next values; noted with them: Table 28; Yap1 mRNA as percent of untreated control; 3-10-3 cEt gapmers targeting SEQ ID NO.: 1, and 2.
Consider “1075342 (antisense kA*k[5mC]*kT*dA*dA*dA*dA*dG*dG*dG*dA*dG*dT*kA*kG*kG) [compound 1075342]”, for which the “YAP1 (% UTC)” value stood at 87 % UTC.

Consider “1074894 (antisense kT*kG*k[5mC]*dT*dG*dA*dA*dG*dT*dT*dT*dA*dG*k[5mC]*k[5mC]*kT) [compound 1074894]”, for which the “YAP1 (% UTC)” value stood at 79 % UTC.

Consider “1074158 (kG*kA*kG*d[5mC]*dG*dA*dG*dG*dG*d[5mC]*dT*dA*d[5mC]*kG*k[5mC]*k[5mC]; antisense) [compound 1074158]”, for which the “YAP1 (% UTC)” value is 72 % UTC.

On to “1074286 (antisense kT*kG*kA*dT*dT*d[5mC]*dT*d[5mC]*dT*dG*dG*dT*dT*k[5mC]*kA*kT) [compound 1074286]”, for which the “YAP1 (% UTC)” value came out at 32 % UTC.

In the case of “1076302 (kA*kA*kT*dA*dA*dG*d[5mC]*d[5mC]*dT*d[5mC]*dA*d[5mC]*d[5mC]*kT*kT*kT; antisense) [compound 1076302]”, the “YAP1 (% UTC)” value was 74 % UTC.

Take “1075470 (antisense kG*k[5mC]*k[5mC]*dA*dA*dT*dA*dA*dG*dT*dT*dA*dT*k[5mC]*kA*kA) [compound 1075470]”: the “YAP1 (% UTC)” value was 50 % UTC.

On to “1075438 (antisense k[5mC]*kA*kT*dA*dT*dT*dA*dG*dA*dG*dT*dT*dG*kA*kG*kG) [compound 1075438]”, for which the “YAP1 (% UTC)” value came out at 22 % UTC.

Consider “1075918 (antisense k[5mC]*kT*kT*dA*dA*dA*d[5mC]*dT*dA*dA*d[5mC]*dT*dG*kT*kT*kG) [compound 1075918]”, for which the “YAP1 (% UTC)” value was 82 % UTC.

As for “1076078 (k[5mC]*kT*kT*dT*dA*dG*d[5mC]*d[5mC]*dT*d[5mC]*dT*dA*dT*kA*k[5mC]*k[5mC]; antisense) [compound 1076078]”, the “YAP1 (% UTC)” value amounted to 23 % UTC.

The data set is the same for the next values; noted with them: Table 29; Yap1 mRNA as percent of untreated control; 3-10-3 cEt gapmers targeting SEQ ID NO.: 1, and 2.
Consider “1074895 (antisense kT*k[5mC]*k[5mC]*dT*dA*dT*dG*d[5mC]*dT*dG*dA*dA*dG*kT*kT*kT) [compound 1074895]”, for which the “YAP1 (% UTC)” value came to 60 % UTC.

For the substance “1076303 (k[5mC]*kT*kA*dA*dT*dA*dA*dG*d[5mC]*d[5mC]*dT*d[5mC]*dA*k[5mC]*k[5mC]*kT; antisense) [compound 1076303]”, the “YAP1 (% UTC)” value was found to be 34 % UTC.

As for “1075663 (antisense k[5mC]*kT*kA*dA*dA*dT*dA*dG*dG*dT*dG*dG*dT*kT*kA*kT) [compound 1075663]”, the “YAP1 (% UTC)” value was determined as 80 % UTC.

For “1075279 (antisense k[5mC]*kT*kA*dT*dA*d[5mC]*dT*dA*dA*d[5mC]*dA*dT*dT*k[5mC]*kA*k[5mC]) [compound 1075279]”, the “YAP1 (% UTC)” value turned out to be 52 % UTC.

Staying with this data set, now noted: Table 34; Yap1 mRNA as percent of untreated control; 3-10-3 cEt gapmers targeting SEQ ID NO: 1 and 2; single dose.
Take “1075572 (antisense k[5mC]*kA*kA*dT*dT*dT*dA*dA*d[5mC]*dT*dG*dT*dT*kA*k[5mC]*kA) [compound 1075572]”: the “YAP1 (% UTC)” value is on record as 84 % UTC.

Turning to “1076468 (k[5mC]*kA*kT*dT*dA*d[5mC]*dT*dA*d[5mC]*dT*dA*dA*dG*kA*kG*kT; antisense) [compound 1076468]”, the “YAP1 (% UTC)” value is 91 % UTC.

Consider “1076180 (kA*kT*kA*dA*dT*dT*dA*dG*d[5mC]*d[5mC]*dA*dA*d[5mC]*k[5mC]*kA*k[5mC]; antisense) [compound 1076180]”, for which the “YAP1 (% UTC)” value was 42 % UTC.

With “1075156 (kA*kT*kT*dA*dT*dA*dT*dG*dA*d[5mC]*dT*d[5mC]*dT*kG*k[5mC]*kT; antisense) [compound 1075156]”, the “YAP1 (% UTC)” value stood at 22 % UTC.

Still in this data set, the particulars now being: Table 35; Yap1 mRNA as percent of untreated control; 3-10-3 cEt gapmers targeting SEQ ID NO: 1 and 2; single dose.
On to “1076309 (kG*kA*kT*dA*dA*d[5mC]*dT*dT*dT*d[5mC]*d[5mC]*dA*d[5mC]*kA*kA*kT; antisense) [compound 1076309]”, for which the “YAP1 (% UTC)” value is given as 9 % UTC.
